Test results: ChEMBL document CHEMBL4041504, “Differential characterization using readily accessible NMR experiments of novel N- and O-alkylated quinolin-4-ol, 1,5-naphthyridin-4-ol and quinazolin-4-ol derivatives with antimycobacterial activity” (Eur J Med Chem, 2017)
Values after ≈ are worked out from the molar mass of the structure shown.

Experiments:
[1] = Kinetic aqueous solubility of the compound by chemiluminescent nitrogen detection assay; assay type: physicochemical; conditions: read-out: Kinetic_solubility
[2] = Lipophilicity, log D of the compound at pH 7.4 by chromatographic method; assay type: physicochemical; conditions: buffer
HepG2 = assay: Cytotoxicity against human HepG2 cells assessed as reduction in cell viability after 48 hrs by CellTiter Glo assay; assay type: cell-based; conditions: HepG2, 48 h
[3] = Permeability of the compound by PAMPA; assay type: physicochemical; conditions: read-out: permeability
[4] = test system: Mycobacterium tuberculosis; assay: microbe, parasite or virus in culture; conditions: H37Rv ATCC 25618, 144 h
Description: Antimycobacterial activity against Mycobacterium tuberculosis H37Rv ATCC 25618 after 6 days by resazurin dye based assay

| Structure (SMILES) | solubility kinetic [1] [µM] | chromatographic logD [2] | IC50 (HepG2) [µM] | Papp [3] [nm/s] | MIC [4] [µM] |
| --- | --- | --- | --- | --- | --- |
| Cc1cc(C)cc(NC(=O)Cn2ccc(=O)c3ccc(Cl)cc32)c1 | 86 (≈ 29.3 µg/mL) | 4.39 | 100 | 260 | > 250 |
| COc1ccc2c(c1)c(=O)ccn2CC(=O)Nc1cc(C)cc(C)c1 | 30 (≈ 10.1 µg/mL) | 3.72 | > 100 | 190 | > 250 |
| NNC(=O)c1ccncc1 [ISONIAZID] |  |  |  |  | 3.6 (≈ 0.494 µg/mL) |
| COc1ccc2nccc(OCC(=O)Nc3cc(C)cc(C)c3)c2c1 | 51 (≈ 17.2 µg/mL) | 5.3 | 50.1 | 280 | 10 (≈ 3.36 µg/mL) |
| COc1ccc2nc(C)cc(OCC(=O)Nc3cc(C)cc(C)c3)c2n1 | 19 (≈ 6.68 µg/mL) | 5.57 | > 100 | 510 | 3.8 (≈ 1.34 µg/mL) |
| Cc1cc(C)cc(NC(=O)Cn2ccc(=O)c3ccccc32)c1 | 34 (≈ 10.4 µg/mL) | 3.54 | 63.1 | 450 | > 250 |
| COc1ccc2nc(C)n(CC(=O)Nc3cc(C)cc(C)c3)c(=O)c2c1 | 74 (≈ 26 µg/mL) | 4.77 | > 100 | 580 | 250 (≈ 87.9 µg/mL) |
| COc1ccc2nc(C)cc(OCC(=O)Nc3cc(C)cc(C)c3)c2c1 |  |  | 20 |  | 1.9 (≈ 0.666 µg/mL) |
| COc1ccc2ncn(CC(=O)Nc3cc(C)cc(C)c3)c(=O)c2c1 | 8 (≈ 2.7 µg/mL) | 4.5 | > 100 |  | > 250 |
| Cc1cc(C)cc(NC(=O)COc2ccnc3ccccc23)c1 | 59 (≈ 18.1 µg/mL) | 5.03 | > 100 | 460 | > 80 |
| Cc1cc(C)cc(NC(=O)Cn2cnc3ccccc3c2=O)c1 | 20 (≈ 6.15 µg/mL) | 4.29 | 79.4 | 600 | > 250 |
| COc1ccc2nc(C)nc(OCC(=O)Nc3cc(C)cc(C)c3)c2c1 | 3 (≈ 1.05 µg/mL) | 5.59 | > 100 | 370 | 1.25 (≈ 0.439 µg/mL) |
